{"source": "the NIST ThermoML archive (doi:10.1021/acs.jced.7b00601)", "key": {"[1]": {"test": "Molar enthalpy of transition or fusion", "conditions": "Crystal; DSC"}, "[2]": {"conditions": "Crystal; DTA"}}, "note": "± gives the expanded uncertainty stated by the source."}
{"smiles": "COc1c(N2CCNC(C)C2)c(F)cc2c(=O)c(C(=O)O)cn(C3CC3)c12", "note": "(configuration not stated) [gatifloxacin]", "values": [{"measurement": "Molar enthalpy of transition or fusion", "setting": "[1]", "result": "8.35 ± 0.232", "unit": "kcal/mol"}, {"measurement": "Normal melting temperature", "setting": "[2]", "result": "162.00 ± 2.9", "unit": "°C"}]}
